Data taken from patent US20030211072A1, “Compositions with enhanced oral bioavailability” (priority 2000, published 2003).
Several values for one entry are separate records, joined by “and”; a condition that tells them apart may be missing. Equal entries are not always repeated.

How the values were obtained:
[1] = In vivo biodistribution of [3H]vinblastine (100 ng/kg) after oral gavage, alone or co-administered with ascophyllum, xanthan gum or polidocanol; details: for AUC Control of [3H]Vinblastine: 100 ng/kg alone
[2] = system: rat everted gut sacs; test: Gut sac viability (active glucose transport); details: [3H]vinblastine; exception: concentrations higher than 1 ng/ml
[3] = system: rat everted gut sacs; test: Everted rat intestinal sacs: tissue uptake and serosal transfer of [3H]vinblastine, alone or with verapamil/enhancer
[4] = system: rat everted gut sacs; test: Everted rat intestinal sacs: tissue uptake and serosal transfer of [14C]doxorubicin, alone or with verapamil/enhancer
[5] = 5 min-24 h, vinblastine 100 ng/kg alone (control)
[6] = [3H]vinblastine 100 ng/kg alone, after 5 hours
[7] = [3H]vinblastine 100 ng/kg alone, after 24 hours
[8] = [3H]vinblastine 1 ng/ml alone (Control), 90 min
[9] = [3H]vinblastine 1 ng/ml, verapamil 0 ng/ml, 60 min
[10] = [3H]vinblastine (−) verapamil, 0 min
[11] = [3H]vinblastine (−) verapamil, 30 min
[12] = [3H]vinblastine (−) verapamil, 60 min
[13] = [3H]vinblastine (−) verapamil, 90 min
[14] = [3H]vinblastine (−) verapamil, 120 min
[15] = [3H]vinblastine alone 0.1 μg/ml, 60 min
[16] = [3H]vinblastine alone 0.3 μg/ml, 60 min
[17] = [3H]vinblastine alone 0.7 μg/ml, 60 min
[18] = [3H]vinblastine alone 1.0 μg/ml, 60 min
[19] = [14C]doxorubicin 1 ng/ml alone (Control), 90 min
[20] = [14C]doxorubicin 1 ng/ml, verapamil 0 ng/ml, 60 min
[21] = [14C]doxorubicin 10 ng/ml alone (Control), 90 min
[22] = [14C]doxorubicin 100 ng/ml alone (Control), 90 min
[23] = [14C]doxorubicin (−) verapamil, 0 min
[24] = [14C]doxorubicin (−) verapamil, 30 min
[25] = [14C]doxorubicin (−) verapamil, 60 min
[26] = [14C]doxorubicin (−) verapamil, 90 min
[27] = [14C]doxorubicin (−) verapamil, 120 min
[28] = [14C]doxorubicin alone 1 ng/ml, 60 min
[29] = [14C]doxorubicin alone 3 ng/ml, 60 min
[30] = [14C]doxorubicin alone 10 ng/ml, 60 min
[31] = [14C]doxorubicin alone 100 ng/ml, 60 min
[32] = [14C]doxorubicin alone 300 ng/ml, 60 min

Compound: CC[C@]1(O)C[C@@H]2CN(CCc3c([nH]c4ccccc34)[C@@](C(=O)OC)(c3cc4c(cc3OC)N(C)[C@H]3[C@@](O)(C(=O)OC)[C@H](OC(C)=O)[C@]5(CC)C=CCN6CC[C@]43[C@@H]65)C2)C1 [[^3H]Vinblastine, vinblastine]
- AUC Control of [^3H]Vinblastine, Blood [1, 5]: 53.47 % Dose/organ weight
- AUC Control of [^3H]Vinblastine, Cecum [1, 5]: 20.20 % Dose/organ weight
- AUC Control of [^3H]Vinblastine, Faeces [1, 5]: 4.58 % Dose/organ weight
- AUC Control of [^3H]Vinblastine, Heart [1, 5]: 1.80 % Dose/organ weight
- AUC Control of [^3H]Vinblastine, Kidney [1, 5]: 0.98 % Dose/organ weight
- AUC Control of [^3H]Vinblastine, Large Intestinal Wash [1, 5]: 6.46 % Dose/organ weight
- AUC Control of [^3H]Vinblastine, Large Intestine [1, 5]: 1.08 % Dose/organ weight
- AUC Control of [^3H]Vinblastine, Liver [1, 5]: 4.36 % Dose/organ weight
- AUC Control of [^3H]Vinblastine, Lung [1, 5]: 1.54 % Dose/organ weight
- AUC Control of [^3H]Vinblastine, Small Intestinal Wash [1, 5]: 36.66 % Dose/organ weight
- AUC Control of [^3H]Vinblastine, Small Intestine [1, 5]: 1.69 % Dose/organ weight
- AUC Control of [^3H]Vinblastine, Spleen [1, 5]: 2.78 % Dose/organ weight
- AUC Control of [^3H]Vinblastine, Stomach [1, 5]: 5.34 % Dose/organ weight
- AUC Control of [^3H]Vinblastine, Urine [1, 5]: 1.79 % Dose/organ weight
- AUC Control of [3H]Vinblastine ([1]; Blood, 5 min-24 h): 53.47 % Dose/organ weight
- AUC Control of [3H]Vinblastine ([1]; Cecum, 5 min-24 h): 20.20 % Dose/organ weight
- AUC Control of [3H]Vinblastine ([1]; Faeces, 5 min-24 h): 4.58 % Dose/organ weight
- AUC Control of [3H]Vinblastine ([1]; Heart, 5 min-24 h): 1.80 % Dose/organ weight
- AUC Control of [3H]Vinblastine ([1]; Kidney, 5 min-24 h): 0.98 % Dose/organ weight
- AUC Control of [3H]Vinblastine ([1]; Large Intestinal Wash, 5 min-24 h): 6.46 % Dose/organ weight
- AUC Control of [3H]Vinblastine ([1]; Large Intestine, 5 min-24 h): 1.08 % Dose/organ weight
- AUC Control of [3H]Vinblastine ([1]; Liver, 5 min-24 h): 4.36 % Dose/organ weight
- AUC Control of [3H]Vinblastine ([1]; Lung, 5 min-24 h): 1.54 % Dose/organ weight
- AUC Control of [3H]Vinblastine ([1]; Small Intestinal Wash, 5 min-24 h): 36.66 % Dose/organ weight
- AUC Control of [3H]Vinblastine ([1]; Small Intestine, 5 min-24 h): 1.69 % Dose/organ weight
- AUC Control of [3H]Vinblastine ([1]; Spleen, 5 min-24 h): 2.78 % Dose/organ weight
- AUC Control of [3H]Vinblastine ([1]; Stomach, 5 min-24 h): 5.34 % Dose/organ weight
- AUC Control of [3H]Vinblastine ([1]; Urine, 5 min-24 h): 1.79 % Dose/organ weight
- levels in blood over the time course ([1]; [3H]vinblastine 100 ng/kg alone, 5 min-24 h): remained constant
- % of the dose in the stomach ([1]; [3H]vinblastine 100 ng/kg alone, after 1 hour): 1.2-1.6%
- % found in the cecum [1, 6]: 1.7±0.3%
- % found in the faeces [1, 6]: 0.33±0.03%
- % in the blood [1, 7]: 3%
- % in the heart [1, 7]: 0.7%
- tissue viability (glucose actively transported) [2]: good tissue viability
- Serosal transfer [3, 8]: 0.006 ng/mg of protein
- Tissue uptake [3, 8]: 0.061 + ng/mg of protein and 0.061 ng/mg of protein
- Total uptake [3, 8]: 0.067 ng/mg of protein
- Serosal transfer [3, 9]: 0.002 ± 0.000 ng/mg of protein
- Tissue uptake [3, 9]: 0.032 ± 0.005 ng/mg of protein
- Serosal transfer [3, 10]: 0.000 ng/mg of protein
- Tissue uptake [3, 10]: 0.001 ng/mg of protein
- Total uptake [3, 10]: 0.001 ng/mg of protein
- Serosal transfer [3, 11]: 0.002 ng/mg of protein
- Tissue uptake [3, 11]: 0.005 ng/mg of protein
- Total uptake [3, 11]: 0.007 ng/mg of protein
- Serosal transfer [3, 12]: 0.003 ng/mg of protein
- Tissue uptake [3, 12]: 0.032 ng/mg of protein
- Total uptake [3, 12]: 0.035 ng/mg of protein
- Serosal transfer [3, 13]: 0.006 ng/mg of protein
- Tissue uptake [3, 13]: 0.049 ng/mg of protein
- Total uptake [3, 13]: 0.055 ng/mg of protein
- Serosal transfer [3, 14]: 0.008 ng/mg of protein
- Tissue uptake [3, 14]: 0.050 ng/mg of protein
- Total uptake [3, 14]: 0.058 ng/mg of protein
- Serosal transfer [3, 15]: 0.000 ± 0.000 ng/mg of protein
- Tissue uptake [3, 15]: 0.009 ± 0.000 ng/mg of protein
- Serosal transfer [3, 16]: 0.001 ± 0.000 ng/mg of protein
- Tissue uptake [3, 16]: 0.011 ± 0.001 ng/mg of protein
- Serosal transfer [3, 17]: 0.002 ± 0.001 ng/mg of protein
- Tissue uptake [3, 17]: 0.017 ± 0.001 ng/mg of protein
- Serosal transfer [3, 18]: 0.003 ± 0.001 ng/mg of protein
- Tissue uptake [3, 18]: 0.029 ± 0.007 ng/mg of protein

Compound: COc1cccc2c1C(=O)c1c(O)c3c(c(O)c1C2=O)C[C@@](O)(C(=O)CO)C[C@@H]3O[C@H]1C[C@H](N)[C@H](O)[C@H](C)O1 [[^14C]Doxorubicin, doxorubicin]
- Serosal transfer [4, 19]: 0.03 ± 0.00 ng/mg of protein
- Tissue uptake [4, 19]: 0.02 ± 0.00 ng/mg of protein
- Total uptake [4, 19]: 0.05 ± 0.01 ng/mg of protein
- Serosal transfer [4, 20]: 0.010 ± 0.000 ng/mg of protein
- Tissue uptake [4, 20]: 0.006 ± 0.000 ng/mg of protein
- Serosal transfer [4, 21]: 0.05 ± 0.00 ng/mg of protein
- Tissue uptake [4, 21]: 0.19 ± 0.03 ng/mg of protein
- Total uptake [4, 21]: 0.24 ± 0.03 ng/mg of protein
- Serosal transfer [4, 22]: 0.05 ± 0.07 ng/mg of protein
- Tissue uptake [4, 22]: 0.75 ± 0.13 ng/mg of protein
- Total uptake [4, 22]: 1.25 ± 0.07 ng/mg of protein
- Serosal transfer [4, 23]: 0.000 ng/mg of protein
- Tissue uptake [4, 23]: 0.001 ng/mg of protein
- Total uptake [4, 23]: 0.001 ng/mg of protein
- Serosal transfer [4, 24]: 0.008 ng/mg of protein
- Tissue uptake [4, 24]: 0.005 ng/mg of protein
- Total uptake [4, 24]: 0.013 ng/mg of protein
- Serosal transfer [4, 25]: 0.017 ng/mg of protein
- Tissue uptake [4, 25]: 0.007 ng/mg of protein
- Total uptake [4, 25]: 0.024 ng/mg of protein
- Serosal transfer [4, 26]: 0.027 ng/mg of protein
- Tissue uptake [4, 26]: 0.025 ng/mg of protein
- Total uptake [4, 26]: 0.052 ng/mg of protein
- Serosal transfer [4, 27]: 0.024 ng/mg of protein
- Tissue uptake [4, 27]: 0.030 ng/mg of protein
- Total uptake [4, 27]: 0.054 ng/mg of protein
- Serosal transfer [4, 28]: 0.0017 ± 0.002 ng/mg of protein
- Tissue uptake [4, 28]: 0.007 ± 0.005 ng/mg of protein
- Serosal transfer [4, 29]: 0.029 ± 0.005 ng/mg of protein
- Tissue uptake [4, 29]: 0.082 ± 0.015 ng/mg of protein
- Serosal transfer [4, 30]: 0.193 ± 0.028 ng/mg of protein
- Tissue uptake [4, 30]: 0.393 ± 0.078 ng/mg of protein
- Serosal transfer [4, 31]: 1.131 ± 0.500 ng/mg of protein
- Tissue uptake [4, 31]: 5.598 ± 1.280 ng/mg of protein
- Serosal transfer [4, 32]: 3.375 ± 0.900 ng/mg of protein
- Tissue uptake [4, 32]: 25.734 ± 3.668 ng/mg of protein
- serosal transfer time course ([4]; [14C]doxorubicin, levels plateaued after 90 min): only linear for 90 min
